In data set [1] the target is T1, Q9E-hMiRP1 channels (Homo sapiens, UniProt Q12809+Q9Y6J6, Q9E).
T1 construct: expressed in transfected cells; host or cells: HEK293 stably expressing HERG, stably co-transfected with pIRES2-EGFP-Q9E-hMiRP1-FLAG
As to conditions: patch clamp studies, Abbott et al, 1999; cited from earlier work. Background: In patch-clamp work, channel activity is measured electrically.

Data set [2] addresses T2, Q9E-hMiRP1 channels (Homo sapiens, UniProt Q12809).
T2 construct: expressed in transfected cells; host or cells: HEK293 stably expressing HERG, stably co-transfected with pIRES2-EGFP-Q9E-hMiRP1-FLAG
Briefly: Whole cell voltage clamp, HEK293 cells stably expressing HERG and Q9E-hMiRP1. Format: cell-based. As to conditions: HEK293 cells overexpressing Q9E-hMiRP1, activation at +20 mV; read-out: Dose leading to half blockade of peak outward currents. The method, then: (§1) Electrophysiology Methods: HEK293 cells that stably express HERG, but not hMiRP1 (Zhou, et al., 1999) were also stably co-transfected with either hMiRP1 or Q9E-hMiRP1 and subsequently were analyzed for channel function by single cell patch clamping using voltage clamp conditions. The data were analyzed at a sampling rate of 4 kHz and filtered at 1 kHz using Pclamp software version 6.0 (Axon Instruments, Foster City, Calif.). Leak correction was not performed, and therefore unaltered data are shown. All experiments were performed at 25° C. Protocols for steady-state activation and isochronal peak currents, and clarithromycin incubations were performed as described by Abbott et al., 1999. Initial studies were performed in buffer containing 95 mM KCl, 5 mM NaCl, 1 mM MgCl2, 0.3 mM CaCl2, and 10 mM HEPES (pH 7.6). For whole cell recordings, pipettes contained 100 mM KCl, 1 mM MgCl2, 10 mM HEPES, and 2 mM EGTA (pH 7.5). A 50 mM Clarithromycin (American Bioanalytical, Natick, Mass.) stock in DMSO was diluted in bath solution.

The target in data set [3] is T1, Q9E-hMiRP1 channels. The data set is described as above. The format is cell-based. How it is done:
as §1

In data set [4] the target is T3, channels formed with wild-type hMiRP1 (Homo sapiens, UniProt Q12809).
T3 construct: expressed in transfected cells; host or cells: HEK293 stably expressing HERG, stably co-transfected with pIRES2-EGFP-hMiRP1-FLAG
Briefly: Whole cell voltage clamp, HEK293 cells stably expressing HERG and wild type hMiRP1. Format: cell-based. The conditions noted are these: wild-type hMiRP1, activation at +20 mV, read-out: Dose causing half block of the peak outward currents. How it is done: as §1

The subject of data set [5] is re-entrant atrial flutter. Briefly: Y-atriotomy model for re-entrant atrial flutter, burst atrial pacing. Format: in vivo, dog. As to conditions: dogs systemically administered a dose of ibutilide equivalent to that provided by the polymer.

Data on two compounds can be found in patent US7282489B2, “Compositions and methods for performing reverse gene therapy” (The Children's Hospital of Philadelphia, priority 2000, dated 2007).

The structures appear in SMILES notation. Some results are limits rather than exact numbers.

T1 sequence (Q12809 whole entry): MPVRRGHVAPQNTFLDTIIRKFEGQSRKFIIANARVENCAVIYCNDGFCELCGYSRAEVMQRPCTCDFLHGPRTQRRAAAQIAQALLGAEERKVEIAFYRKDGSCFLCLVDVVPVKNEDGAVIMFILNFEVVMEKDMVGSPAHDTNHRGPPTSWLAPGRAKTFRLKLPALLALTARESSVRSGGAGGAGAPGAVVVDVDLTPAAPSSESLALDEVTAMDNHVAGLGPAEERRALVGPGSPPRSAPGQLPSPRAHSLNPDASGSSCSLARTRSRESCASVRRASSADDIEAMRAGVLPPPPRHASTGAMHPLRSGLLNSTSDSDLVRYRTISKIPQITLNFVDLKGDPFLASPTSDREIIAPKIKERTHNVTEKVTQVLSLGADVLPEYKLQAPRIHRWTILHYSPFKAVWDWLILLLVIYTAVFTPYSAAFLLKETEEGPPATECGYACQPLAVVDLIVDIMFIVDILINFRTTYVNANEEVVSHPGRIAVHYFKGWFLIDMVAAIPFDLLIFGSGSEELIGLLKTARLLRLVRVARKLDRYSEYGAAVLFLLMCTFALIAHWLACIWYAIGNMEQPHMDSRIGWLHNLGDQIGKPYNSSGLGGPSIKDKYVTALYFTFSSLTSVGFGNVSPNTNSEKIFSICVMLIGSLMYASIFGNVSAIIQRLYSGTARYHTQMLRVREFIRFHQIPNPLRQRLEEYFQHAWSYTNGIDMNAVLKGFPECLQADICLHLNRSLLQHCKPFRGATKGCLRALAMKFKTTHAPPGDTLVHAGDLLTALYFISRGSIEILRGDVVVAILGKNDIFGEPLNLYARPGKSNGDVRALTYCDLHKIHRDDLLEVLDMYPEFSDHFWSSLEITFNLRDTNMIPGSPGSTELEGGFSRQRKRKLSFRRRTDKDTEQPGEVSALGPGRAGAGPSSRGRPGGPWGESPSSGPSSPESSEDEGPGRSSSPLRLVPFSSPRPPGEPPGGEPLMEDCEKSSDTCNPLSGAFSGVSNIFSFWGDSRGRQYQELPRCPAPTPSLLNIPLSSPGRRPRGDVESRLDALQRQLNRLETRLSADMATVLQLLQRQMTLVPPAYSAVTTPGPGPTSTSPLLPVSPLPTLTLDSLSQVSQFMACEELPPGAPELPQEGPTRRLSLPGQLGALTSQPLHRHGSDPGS
T1 sequence (Q9Y6J6 whole entry Q9E): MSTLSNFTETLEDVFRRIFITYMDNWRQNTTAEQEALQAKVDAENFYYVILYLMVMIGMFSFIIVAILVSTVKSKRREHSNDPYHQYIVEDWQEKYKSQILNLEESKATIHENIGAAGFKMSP
T2 sequence (Q12809 whole entry): as the sequence (Q12809 whole entry) above
T2 sequence (Q9Y6J6 whole entry Q9E, further chain): as the sequence (Q9Y6J6 whole entry Q9E) above
T3 sequence (Q12809 whole entry): as the sequence (Q12809 whole entry) above
T3 sequence (Q9Y6J6 whole entry, further chain): as the sequence (Q9Y6J6 whole entry Q9E) above, with E9Q counted along it

Turning to `CC[C@H]1OC(=O)[C@H](C)[C@@H](O[C@H]2C[C@@](C)(OC)[C@@H](O)[C@H](C)O2)[C@H](C)[C@@H](O[C@@H]2O[C@H](C)C[C@H](N(C)C)[C@H]2O)[C@](C)(OC)C[C@@H](C)C(=O)[C@H](C)[C@@H](O)[C@]1(C)O` [clarithromycin, Clarithromycin], at Q9E-hMiRP1 channels [1], the “Sensitivity of Q9E-hMiRP1 channels to clarithromycin induced diminution of potassium currents relative to wild type” value is listed as 3 fold. The IC50 at Q9E-hMiRP1 channels [2] was < 1 mM; in data set [4], ~2 mM. For the same compound, the “Effect on I/I max with increased voltages” value on Q9E-hMiRP1 channels [3] (1.0 mM clarithromycin, Q9E-hMiRP1 stable cells, groups of 4 cells) is listed as “blocked increases in I/I max with increased voltages”. Moreover, the “Clarithromycin effect in Q9E-hMiRP1 cells relative to wild type hMiRP1 cells” value on Q9E-hMiRP1 channels [3] (HEK293 cells) was “many-fold greater”. Also, the “Effect on peak outward currents” value at Q9E-hMiRP1 channels [3] (HEK293 cells over-expressing Q9E-hMiRP1, whole cell voltage clamp) was “reduced peak outward currents”.
Regarding `CCCCCCCN(CC)CCCC(O)c1ccc(NS(C)(=O)=O)cc1` (stereo not shown) [ibutilide, Ibutilide], in data set [5], the “Inhibition of inducibility of atrial flutter” value is given as “No significant inhibition”.
